Experiments:
[1] = molecular target: Receptor-type tyrosine-protein kinase FLT3 (Homo sapiens, UniProt P36888, D835Y)
Description: Inhibition of human FLT3 D835Y mutant preincubated for 15 mins followed by poly(Glu:Tyr) substrate addition for 30 mins in presence of [gamma-32P]ATP by TR-FRET assay

[2] = molecular target: T1, Receptor-type tyrosine-protein kinase FLT3 (Homo sapiens, UniProt P36888); assay: biochemical; assay type: cell-based, Sf21
T1 sequence (P36888 whole entry): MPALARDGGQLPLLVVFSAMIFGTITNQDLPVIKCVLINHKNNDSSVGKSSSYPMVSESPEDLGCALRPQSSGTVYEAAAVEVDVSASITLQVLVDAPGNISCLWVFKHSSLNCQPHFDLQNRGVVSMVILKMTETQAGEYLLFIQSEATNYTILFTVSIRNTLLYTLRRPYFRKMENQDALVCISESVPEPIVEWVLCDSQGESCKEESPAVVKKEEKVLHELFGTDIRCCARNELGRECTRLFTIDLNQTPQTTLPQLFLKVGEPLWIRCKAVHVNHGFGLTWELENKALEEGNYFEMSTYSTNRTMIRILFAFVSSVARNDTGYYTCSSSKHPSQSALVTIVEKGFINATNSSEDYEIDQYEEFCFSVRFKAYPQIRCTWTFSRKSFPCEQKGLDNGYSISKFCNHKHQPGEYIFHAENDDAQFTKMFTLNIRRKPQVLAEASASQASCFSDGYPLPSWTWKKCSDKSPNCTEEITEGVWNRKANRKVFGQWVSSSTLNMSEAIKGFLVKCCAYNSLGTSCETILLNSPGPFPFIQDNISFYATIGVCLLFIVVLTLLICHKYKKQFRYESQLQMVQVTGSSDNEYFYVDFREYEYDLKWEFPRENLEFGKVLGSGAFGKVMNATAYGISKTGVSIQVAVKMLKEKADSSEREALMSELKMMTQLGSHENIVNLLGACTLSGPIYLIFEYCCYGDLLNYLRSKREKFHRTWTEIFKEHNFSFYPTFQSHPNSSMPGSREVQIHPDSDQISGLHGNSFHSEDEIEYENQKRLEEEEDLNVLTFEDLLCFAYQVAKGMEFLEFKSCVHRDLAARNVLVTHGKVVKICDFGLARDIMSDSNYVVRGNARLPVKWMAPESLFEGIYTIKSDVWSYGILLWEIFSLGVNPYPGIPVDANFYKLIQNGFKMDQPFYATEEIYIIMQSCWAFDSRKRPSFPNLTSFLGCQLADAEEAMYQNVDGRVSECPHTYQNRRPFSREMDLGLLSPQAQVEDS
Description: Inhibition of recombinant human FLT3 expressed in insect Sf21 cells preincubated for 15 mins followed by poly(Glu:Tyr) substrate addition for 30 mins in presence of [gamma-32P]ATP by TR-FRET assay

[3] = Metabolic stability in rat liver microsomes assessed as compound remaining at 1 uM after 30 mins in presence of NADPH by HPLC-MS analysis; assay type: ADME; details: for remaining at 0.5 h, 1 µM: liver microsomes, read-out: Stability
[4] = Metabolic stability in human liver microsomes assessed as compound remaining at 1 uM after 30 mins in presence of NADPH by HPLC-MS analysis; assay type: ADME; details: read-out: Stability
cells [5] = details: Homo sapiens, HL-60, 48 h
Description: Growth inhibition of human HL60 cells expressing wild type FLT-3 after 48 hrs by XTT assay

cells [6] = details: Homo sapiens, K562, 48 h
Description: Growth inhibition of human K562 cells after 48 hrs by XTT assay

cells [7] = details: Homo sapiens, THP-1, 48 h
Description: Growth inhibition of human THP1 cells expressing wild type FLT-3 after 48 hrs by XTT assay

cells [8] = details: Homo sapiens, MV4-11, 48 h
Description: Growth inhibition of human MV4-11 cells expressing FLT3-ITD after 48 hrs by XTT assay

[9] = molecular target: Tyrosine-protein kinase ABL1 (Homo sapiens, UniProt P00519); assay: Inhibition of recombinant human ABL1 expressed in insect cells assessed as remaining activity at 10 uM preincubated for 15 mins followed by poly(Glu:Tyr) substrate addition for 30 mins in presence of [gamma-32P]ATP by […] assay
Angiopoietin-1 receptor = Angiopoietin-1 receptor (Homo sapiens, UniProt Q02763); assay: Inhibition of human TIE2 assessed as remaining activity at 10 uM preincubated for 15 mins followed by substrate addition measured after 30 mins in presence of [gamma-32P]ATP by […] assay
Chain of Angiopoietin-1 receptor (Q02763 whole entry): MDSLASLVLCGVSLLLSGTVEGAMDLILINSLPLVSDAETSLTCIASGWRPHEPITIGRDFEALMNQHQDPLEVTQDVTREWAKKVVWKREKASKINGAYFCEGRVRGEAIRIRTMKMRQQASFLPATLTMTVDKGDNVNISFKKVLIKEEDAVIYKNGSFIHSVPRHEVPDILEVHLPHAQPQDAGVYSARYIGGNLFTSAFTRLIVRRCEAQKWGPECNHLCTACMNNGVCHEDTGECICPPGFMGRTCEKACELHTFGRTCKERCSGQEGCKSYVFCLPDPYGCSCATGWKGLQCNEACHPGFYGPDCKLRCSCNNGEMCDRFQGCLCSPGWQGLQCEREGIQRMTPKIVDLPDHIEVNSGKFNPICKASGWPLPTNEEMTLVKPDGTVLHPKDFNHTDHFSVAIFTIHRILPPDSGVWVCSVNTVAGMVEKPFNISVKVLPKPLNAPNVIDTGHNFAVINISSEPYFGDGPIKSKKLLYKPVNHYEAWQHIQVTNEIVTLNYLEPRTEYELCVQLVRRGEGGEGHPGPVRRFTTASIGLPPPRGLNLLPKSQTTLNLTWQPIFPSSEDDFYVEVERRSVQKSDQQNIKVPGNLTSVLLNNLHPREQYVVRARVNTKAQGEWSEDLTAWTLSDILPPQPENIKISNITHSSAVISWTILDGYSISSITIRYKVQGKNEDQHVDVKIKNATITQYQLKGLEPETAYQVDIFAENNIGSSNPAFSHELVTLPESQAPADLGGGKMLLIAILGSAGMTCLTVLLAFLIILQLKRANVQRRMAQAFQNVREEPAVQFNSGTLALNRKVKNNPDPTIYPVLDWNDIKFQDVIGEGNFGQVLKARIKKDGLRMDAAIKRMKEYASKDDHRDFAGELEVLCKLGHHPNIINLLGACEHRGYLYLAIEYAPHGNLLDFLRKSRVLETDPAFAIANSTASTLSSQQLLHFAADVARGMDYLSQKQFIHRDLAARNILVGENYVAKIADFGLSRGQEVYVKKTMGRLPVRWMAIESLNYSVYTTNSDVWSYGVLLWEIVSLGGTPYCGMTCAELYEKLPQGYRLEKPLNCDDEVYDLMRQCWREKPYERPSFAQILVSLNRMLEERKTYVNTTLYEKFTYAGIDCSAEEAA

Chain of Tyrosine-protein kinase ABL1 (P00519 whole entry): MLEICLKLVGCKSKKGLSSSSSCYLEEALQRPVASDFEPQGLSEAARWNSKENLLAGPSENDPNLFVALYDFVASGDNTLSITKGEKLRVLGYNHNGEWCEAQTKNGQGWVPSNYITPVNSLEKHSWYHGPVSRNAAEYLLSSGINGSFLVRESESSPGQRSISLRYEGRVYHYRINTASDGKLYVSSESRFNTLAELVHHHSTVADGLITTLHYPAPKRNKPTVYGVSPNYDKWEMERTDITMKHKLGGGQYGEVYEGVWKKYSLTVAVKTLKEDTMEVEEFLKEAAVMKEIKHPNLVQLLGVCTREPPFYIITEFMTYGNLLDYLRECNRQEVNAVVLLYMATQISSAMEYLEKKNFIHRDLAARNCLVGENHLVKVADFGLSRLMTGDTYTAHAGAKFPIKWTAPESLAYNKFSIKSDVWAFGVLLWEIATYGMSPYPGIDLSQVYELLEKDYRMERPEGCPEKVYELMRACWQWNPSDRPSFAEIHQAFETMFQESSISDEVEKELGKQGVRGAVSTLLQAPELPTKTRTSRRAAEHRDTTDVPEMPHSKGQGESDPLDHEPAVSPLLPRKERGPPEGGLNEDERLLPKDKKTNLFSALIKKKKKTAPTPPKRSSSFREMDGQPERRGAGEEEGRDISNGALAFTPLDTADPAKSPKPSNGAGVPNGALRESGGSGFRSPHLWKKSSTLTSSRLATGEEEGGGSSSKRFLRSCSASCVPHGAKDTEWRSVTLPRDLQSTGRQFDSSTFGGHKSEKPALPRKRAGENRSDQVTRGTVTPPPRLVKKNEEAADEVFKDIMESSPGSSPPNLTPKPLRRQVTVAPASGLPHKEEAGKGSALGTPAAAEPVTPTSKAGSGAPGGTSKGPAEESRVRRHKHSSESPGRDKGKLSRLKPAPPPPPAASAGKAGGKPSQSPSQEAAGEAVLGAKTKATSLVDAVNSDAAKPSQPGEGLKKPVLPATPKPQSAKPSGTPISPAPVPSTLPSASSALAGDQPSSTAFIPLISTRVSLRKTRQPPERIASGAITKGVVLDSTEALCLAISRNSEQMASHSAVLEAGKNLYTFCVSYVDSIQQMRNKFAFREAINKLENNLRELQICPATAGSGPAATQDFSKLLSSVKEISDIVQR

Compound	IC50 [1] [µM]	IC50 [2] [µM]	remaining at 0.5 h, 1 µM [3] [%]	remaining at 0.5 h, 1 µM [4] [%]	GI50 (cells [5]) [µM]	GI50 (cells [6]) [µM]	GI50 (cells [7]) [µM]	GI50 (cells [8]) [µM]	Activity [9] [%]	Activity (Angiopoietin-1 receptor) [%]	Stability ([3]; microsomes, 0.5 h, 1 µM)
CC1=CC(=O)N(Nc2nc(-c3cccs3)nc3sc(-c4ccc(OCCNCCC#N)cc4)c(C)c23)C1=O	0.0294	0.191	32.1	52							
CC1=CC(=O)N(Nc2nc(-c3cccs3)nc3sc(-c4ccc(O)cc4)cc23)C1=O	0.0787	0.0755	28.2	74.1	0.336	0.506	0.765	0.927			
CC1=CC(=O)N(Nc2nc(-c3cccs3)nc3sc(-c4ccc(OCCNCC(C)C)cc4)c(C)c23)C1=O	0.0359	0.0025	39.7	66.2	0.598	0.489	0.449	0.278			
CC1=CC(=O)N(Nc2nc(-c3cccs3)nc3sc(-c4ccc(OCC5CCCO5)cc4)c(C)c23)C1=O (stereo not given)			41	41.7							
CC1=CC(=O)N(Nc2nc(-c3cccs3)nc3sc(-c4ccc(OCCN5CCCC5)cc4)c(C)c23)C1=O	0.0165	0.00643	41.5	72.7	1.26	1.04	0.636	0.585			
CC1=CC(=O)N(Nc2nc(-c3cccs3)nc3sc(-c4ccc(O)cc4)c(C)c23)C1=O			28.8	71.8							
CC1=CC(=O)N(Nc2nc(-c3cccs3)nc3sc(-c4ccc(OC5CCNC5)cc4)c(C)c23)C1=O (stereo not given)	0.0293	0.00377	34.2	50.8	0.214	0.315	0.227	0.366	26	25	
COc1ccc(-c2cc3c(NN4C(=O)C=C(C)C4=O)nc(-c4cccs4)nc3s2)cc1	0.0471	0.0686			0.682	1.09	1.27	1.7			
CC1=CC(=O)N(Nc2nc(-c3cccs3)nc3sc(C)cc23)C1=O	0.0147	0.0168	32.6	58.8	0.422	1.01	1.24	1.05			
CC1=CC(=O)N(Nc2nc(-c3cccs3)nc3sc(-c4ccc(OCCNCc5ccccc5)cc4)c(C)c23)C1=O	0.00948	0.0719	30.4	86.2							
CC1=CC(=O)N(Nc2nc(-c3cccs3)nc3sc(-c4ccc(OCc5ccc(F)cc5)cc4)c(C)c23)C1=O			35.6	66.9							
CC1=CC(=O)N(Nc2nc(-c3cccs3)nc3sc(C)c(C)c23)C1=O	0.0137	0.0114	22.7	32.4	0.127	0.105	0.222	0.191	29	32	
CC1=CC(=O)N(Nc2nc(-c3cccs3)nc3sc(CO)c(C)c23)C1=O			20.4	24.6							
CC1=CC(=O)N(Nc2nc(-c3cccs3)nc3sc(-c4ccc(OC5CCNCC5)cc4)c(C)c23)C1=O	0.0272	0.0314	47.8	52.4	0.377	0.425	0.46	0.58			
CC1=CC(=O)N(Nc2nc(-c3cccs3)nc3sc(-c4ccc(F)cc4)cc23)C1=O	0.0544	0.124	26.9	61							
CC1=CC(=O)N(Nc2nc(-c3cccs3)nc3sc(C#N)c(C)c23)C1=O	0.075	0.118	26.1	52.7							
CC1=CC(=O)N(Nc2nc(-c3cccs3)nc3sc(-c4ccc(F)cc4)c(C)c23)C1=O			54.5	39.5							
CC1=CC(=O)N(Nc2nc(-c3cccs3)nc3sc(-c4ccc(OCCNCCO)cc4)c(C)c23)C1=O.Cl	0.000334	0.00531		91.3	1.34	1.41	0.843	1.13			Nd(Unstable)

— ChEMBL document CHEMBL3856191, “Structural modifications at the 6-position of thieno[2,3-d]pyrimidines and their effects on potency at FLT3 for treatment of acute myeloid leukemia” (Eur J Med Chem, 2016)
